Measured values published in patent US20150126464A1, “THERAPEUTIC DRUG AND THERAPEUTIC METHOD FOR NEUROLOGICAL DISEASES INCLUDING ALZHEIMER'S DISEASE ASSOCIATED WITH 1,25D3-MARRS” (priority 2013, published 2015).

How the values were obtained:
[1] = system: spinal cord injury (SCI) mice; test: Hindlimb motor function of spinal cord injury (SCI) mice (BMS, TMS); format: in vivo, mouse; details: diosgenin 10 μmol/kg i.p. once a day for 7 days, vs vehicle
Protocol: In the spinal cord injury model test, 7-week-old female ddY mice (SLC) were used. The mice were maintained with free access to food and water in a controlled environment (22±2° C., 50±5% humidity, 12-h light/dark cycle starting at 7:00 am). A contusion was created by dropping a 3.0 g weight once onto an exposed first lumbar vertebrae (L1) of each mouse from a height of 3 cm using stereotaxic apparatus (made by Narishige). One hour after surgery, the mice were randomly divided into a vehicle solution-treated group and a diosgenin-treated group, and then drug administration was initiated.
Diosgenin (10 μmol/kg) was intraperitoneally administered to SCI mice once a day for 7 days.
One hour after the last administration in Example 13 and Comparative Example 17, each mouse was moved to an open field (23.5 cm×16.5 cm×12.5 cm) and observed for behavior evaluation for 5 minutes. The locomotion behavior in the open field was evaluated using the Basso Mouse Scale (BMS), which is a general standard for evaluation of the hindlimb function of SCI model mice (FIG. 14A), and a 0-18-point Toyama Mouse Scale (TMS), which is a modified BMS devised by the inventors for better test accuracy, (FIG. 14B).
The new Toyama Mouse Scale (TMS), which is a modified BMS devised by the inventors for better test accuracy, was used in the hindlimb function of SCI mice.

[2] = system: rat cortical neurons (SD E18); test: Measurement of axon density in cortical neurons with or without 1,25D3-MARRS knockdown; details: 1 μM, 4 days, vs vehicle
Excerpt: siRNAs were transfected into rat cortical neurons (SD E18) according to the manufacturer's protocol for nucleofection (Lonza, Bazel, Switzerland). […] Two days after the transfection, the cells were fixed and double-immunostained with a monoclonal antibody against a neuron marker MAP2a/2b (1:500, NeoMarker, Fremont, Calif., USA) and Ab099 clone, a specific antibody for 1,25D3-MARRS (1:500, provided by Dr. Nemere).
Twelve to fourteen images were captured. The lengths of the pNF-H-positive axons were measured using an image analyzer Neurocyte (Kurabo), which automatically traces and measures neurite length without measuring the cell bodies. The sum of the axon lengths was divided by the number of MAP2-positive neurons.
1,25D3-MARRS was knocked down using siRNA transfection. […] Two days after the siRNA transfection, denosomin (1 μM) or a vehicle solution was applied to the cells. Further, after 4-day incubation, the cells were double-immunostained for pNF-H and MAP2 to measure the axonal length per neuron.

normal mice [3] = test: Object recognition memory under continuous administration of 1,25D3-MARRS neutralizing antibody; format: in vivo, mouse; details: normal ddY mice, diosgenin i.p.
Protocol: To neutralize the 1,25D3-MARRS function of normal mice (ddY mice, male, 6 weeks old), a polyclonal antibody specific to 1,25D3-MARRS, i.e., Ab099 clone, was intraventricularly administered in a continuous manner. Ab099 diluted in ACSF (artificial cerebrospinal fluid) was charged into a micro osmotic pump (model: 1007D, Alzet, Cupertino, Calif., USA) and a brain infusion kit 3 (Alzet). The dilution rate of Ab099 was determined depending on the cerebrospinal fluid (CSF) volume and the inflow velocity so that the concentration would be sufficient for Ab099 to act as a neutralizing antibody in CSF. Using stereotaxic apparatus, a brain infusion cannula (brain infusion kit) was inserted into the right ventricle of each mouse anesthetized beforehand (anterior/posterior: −0.22 mm posterior from bregma, medial/lateral: +1.0 mm, dorsal/ventral: −2.5 mm below surface). The entire cannula insertion site was covered with Loctite 454 (Alzet). The pump was subcutaneously implanted in the back of the mouse. The incision in the skin was sutured.
After the start of continuous antibody administration, the intraperitoneal administration of diosgenin was initiated. After 5-day administration of diosgenin, the object recognition memory training was initiated. The next day, the last administration of diosgenin was performed. The test session was initiated 48 hours after the start of the training session. […]

normal mice [4] = test: Novel object recognition test in normal mice; format: in vivo, mouse
Protocol: Diosgenin (Wako Pure Chemical Industries, Ltd., Osaka, Japan) was dissolved in ethanol at 10 times the final concentration to give a stock solution, and the stock solution was diluted in a 5% aqueous solution of glucose to the final concentration. The diosgenin solution was intraperitoneally administered to normal mice (ddY mice, male, 6 weeks old) once a day (10 μmol/kg/day) for 5 or 6 days. One hour after the last administration, each mouse was housed in a separate open-field box made of polyvinyl chloride (33 cm×28 cm; height: 26.5 cm), habituated to the environment for 10 minutes, and used in the test.
Using the mice of Example 8 and Comparative Example 11, a novel object recognition test was performed to evaluate the object recognition memory. Testing was carried out in a dimly illuminated room (100 lux). The test was performed as described in Joyashiki, E. et sl., Int J Neurosci, 121, 181-190, 2011 and Tohda, C. et al., Int J Neurosci, 121, 641-648, 2011, written by the inventors and others, except that the time interval between a training session and a test session was 48 hours. As a locomotion index, the path of each mouse was tracked using a digital camera system. The distance each mouse traveled during the 10 minutes was analyzed as locomotion activity with EthoVision 3.0 (Noldus, Wageningen, The Netherlands).
The diosgenin solution was intraperitoneally administered to normal mice (C57BL/6, male, 8 weeks old) (100 μmol/kg/day) for 14 days. On the day after the 14th administration, the mice were used in the test.
Using the mice of Example 9 and Comparative Example 12, the novel object recognition test was performed. The test was performed under the conditions as described above.
Dioscin in an amount of 30 μmol/kg/day was orally administered to normal mice (ddY mice, male, 6 weeks old) for 4 days. Dioscin (Chromadex, Irvine, Calif., USA) was dissolved in ethanol at 10 times the final concentration to give a stock solution, and the stock solution was diluted in a 5% aqueous solution of glucose to the final concentration. […]

[5] = system: rat cortical neurons (SD E18); test: Axon density after Aβ (1-42)-induced axonal atrophy with 1,25D3-MARRS neutralizing antibody; format: cell-based; details: after Aβ (1-42) for 3 days; Ab099 clone 1:500; diosgenin 0.1 μM or 1 μM for 5 days
Protocol: Aβ (1-42) was incubated at 37° C. for four days for aggregation beforehand. […] After the 3-day treatment, a control antibody (normal rabbit IgG, 1:5000) was added to the cells, and the cells were incubated for 10 minutes and further treated with diosgenin (0.1 μM) for 5 days.
Seven to nine images were captured.

C[C@@H]1CC[C@@]2(OC1)O[C@H]1C[C@H]3[C@@H]4CC=C5C[C@@H](O)CC[C@]5(C)[C@H]4CC[C@]3(C)[C@H]1[C@@H]2C [diosgenin]
hindlimb motor function (BMS and TMS) [1]: improved hindlimb motor function
density of pNF-H-positive axons per MAP2-positive neuron, control groups ([2]; control (no 1,25D3-MARRS knockdown) cortical neurons): significantly increased
density of pNF-H-positive axons per MAP2-positive neuron, 1,25D3-MARRS knockdown groups ([2]; neurons transfected with siRNA for 1,25D3-MARRS (400 nM)): did not show any difference
preferential index, mice treated with ACSF and diosgenin (normal mice [3]; ACSF intraventricular, test 48 hours after training): significantly improved
memory improvement attributable to diosgenin in mice given 1,25D3-MARRS neutralizing antibody (normal mice [3]; Ab099 clone intraventricular continuous): completely offset
object recognition memory (normal mice [4]; normal C57BL/6 mice, diosgenin 100 μmol/kg/day i.p. 14 days): significantly improved
behavior index of exploratory behavior for the novel object (normal mice [4]; normal ddY mice, diosgenin 10 μmol/kg/day i.p. 5 or 6 days, 48 hours training-test interval): higher than 50%
diosgenin-induced axonal growth in cells where 1,25D3-MARRS was inhibited by the neutralizing antibody [5]: significantly suppressed
